# System: 4T1-Luc2 cells
# Assay: Survival of mice after resection of orthotopic 4T1-Luc2 breast tumors, composition administered at the tumor resection site
# Type: in vivo, mouse
# Description: In some embodiments, an animal model of cancer can be used to identify and/or characterize composition comprising a polymeric biomaterial and a modulator of myeloid-derived suppressive cells. For example, a tumor resection is performed on a tumor-bearing mouse, and a composition described herein, e.g., composition comprising a polymeric biomaterial and a modulator of myeloid-derived suppressive cells is administered to the tumor resection site. The survival of treated subjects is then monitored. In some embodiments, a composition comprising a polymeric biomaterial and a modulator of myeloid-derived suppressive cells is considered and/or determined to be useful in accordance with the present disclosure when it is characterized, in that when tested in vivo as described in the present Example, it extends survival of a treated subject, e.g., by at least 1 week, at least 2 weeks, at least 3 weeks, at least 4 weeks, at least 2 months, at least 3 months, at least 4 months, at least 5 months, at least 6 months, or longer, as compared to that observed in a control reference (e.g., a control in which a composition comprising a polymeric biomaterial and a modulator of myeloid-derived suppressive cells is not administered. For example, in some embodiments, a control reference may be administration of a polymeric biomaterial in the absence of a modulator of myeloid-derived suppressive cell function. In some embodiments, a control reference may be administration of a modulator of myeloid-derived suppressive cell function in solution. Alternatively, in some embodiments, a provided composition comprising a biomaterial preparation and a modulator of myeloid-derived suppressive cells is considered and/or determined to be useful for treatment of cancer (including, e.g., prevention or reduction in the likelihood of tumor relapse or metastasis) in accordance with the present disclosure when such a composition, after administration at a tumor resection site, reduces incidence of tumor recurrence and/or metastasis after the tumor resection (e.g., at least 1 month after tumor resection when the test subject is a mouse subject, or at least 3 months after tumor resection when the test subject is a human subject), for example, by at least 10% or more (comprising, e.g., at least 20%, at least 30%, at least 40%, at least 50%, at least 60%, at least 70%, at least 80%, at least 90%, or more) as compared to that observed in a control reference (e.g., as described above).
# In some embodiments, female BALB/cJ mice are inoculated orthotopically with 100,000 breast cancer cells (e.g., 4T1-Luc2 cells). Ten days later, tumors are surgically resected, and either (i) a composition described herein, e.g., a composition comprising a polymeric biomaterial and a modulator of myeloid-derived suppressive cells, (ii) a composition comprising a polymeric biomaterial without a modulator of myeloid-derived suppressive cells, and/or (iii) a negative control composition (e.g., a buffered solution without such a composition) is administered into the resection cavity. Animal survival can be monitored to inspect for induction of antitumor immunity. In some embodiments, to confirm that a composition comprising a polymeric biomaterial and a modulator of myeloid-derived suppressive cells functions mechanistically, for example, by modulating recruitment and/or survival and/or proliferation of myeloid-derived suppressive cells (e.g., neutrophils), animal survival may be monitored following inhibition of recruitment and/or survival and/or proliferation of myeloid-derived suppressive cells (e.g., neutrophils). In some embodiments, to confirm that an administered composition comprising a polymeric biomaterial and a modulator of myeloid-derived suppressive cells functions mechanistically by modulating myeloid-derived suppressive cell effector function, animal survival may be monitored following modulating myeloid-derived suppressive cell effector function (e.g., as described herein). […]
# [1] = 10% w/w poloxamer 407 + 3% w/w 187 kDa HA with agent, 1.25 mg/mouse, at tumor resection site (day 10), vs same biomaterial without agent and vs 15% w/w poloxamer 407
smiles,measurement,setting,value
"Cc1c(C#N)cccc1-c1cc(-c2cn(Cc3cccc(C(C)(C)O)n3)nn2)nc(N)n1 [AB928, etrumadenant]",survival of tumor resection mice,[1],survived over a longer period of time
O=C(c1ccccc1)c1ccc2n1CCC2C(=O)O (stereo not shown) [Ketorolac],survival of tumor resection mice,"FIG. 2A: 10% w/w poloxamer 407 + 3% w/w 187 kDa HA with agent, 6 mg/mouse, at tumor resection site, vs same biomaterial without agent and vs 15% w/w poloxamer 407",survived over a longer period of time
same,survival of tumor resection mice,"FIG. 2B: 10% w/w poloxamer 407 + 3% w/w 187 kDa HA with agent, 9 mg/mouse, at tumor resection site, vs same biomaterial without agent and vs 15% w/w poloxamer 407",survived over a longer period of time
same,survival of tumor resection mice,"FIG. 3: 9% w/w poloxamer 407 + 2.2% w/w 766 kDa HA with agent, 1.2 mg/mouse, at tumor resection site, vs same biomaterial without agent",survived over a longer period of time
c1cc(CN2CCCNCCNCCCNCC2)ccc1CN1CCCNCCNCCCNCC1 [Plerixafor],survival of tumor resection mice,[1],survived over a longer period of time
CC/C=C\C[C@H](O)[C@H](O)/C=C/C=C/C=C\C=C\[C@@H](O)C/C=C\CCC(=O)O [Resolvin D2],survival of tumor resection mice,"FIG. 4: 10% w/w poloxamer 407 + 3% w/w 187 kDa HA with agent, 2.5 μg/mouse, at tumor resection site, vs same biomaterial without agent and vs 15% w/w poloxamer 407",survived over a longer period of time
CCCCC(=O)N(Cc1ccc(-c2ccccc2-c2nnn[nH]2)cc1)[C@H](C(=O)O)C(C)C [Valsartan],survival of tumor resection mice,"FIG. 7: 11% w/w poloxamer 407 + 1.8% w/w 766 kDa HA with agent, 1 mg/mouse, at tumor resection site, vs same biomaterial without agent",survived over a longer period of time

# Source: patent publication US20230398146A1, “IMMUNE MODULATION OF MYELOID DERIVED SUPPRESSIVE CELL FUNCTION FOR CANCER TREATMENT” (SURGE Therapeutics, Inc., priority 2020, published 2023)
